Common to all, as to details: average of at least two experiments
The target in assay [1] is 5HT1e receptor (Homo sapiens (Human), UniProt P28566). Put plainly: Secondary radioligand binding assay, 5HT1e.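 Also: competition binding against a radioligand on membranes from transfected cell lines, 1.5 h at room temperature, bound radioactivity counted by liquid scintillation after filtration.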 On the set-up: key: “—” indicates that a binding interaction was not detected.
Description: (§2) The 250 μl reactions are incubated at room temperature and shielded from light (to prevent photolysis of light-sensitive ligands) for 1.5 hours, then harvested by rapid filtration onto Whatman GF/B glass fiber filters pre-soaked with 0.3% polyethyleneimine using a 96-well Brandel harverster. Four rapid 500 μl washes are performed with chilled Standard Binding Buffer to reduce non-specific binding. Filters are placed in 6 ml scintillation tubes and allowed to dry overnight. The next day, 4 ml of EcoScint scintillation cocktail (National Diagnostics) are added to each tube. The tubes are capped, labeled, and counted by liquid scintillation counting. […] The filter mats are dried, then scintillant is melted onto the filters and the radioactivity retained on the filters is counted in a Microbeta scintillation counter.
For assay [2], the target named is 5HT2b receptor (Homo sapiens (Human), UniProt P41595). In words: Secondary radioligand binding assay, 5HT2b.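 Also: competition binding against a radioligand on membranes from transfected cell lines, 1.5 h incubation at room temperature, filter-retained radioactivity counted by liquid scintillation.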 On the set-up: key to Ki 5HT2b: “—” indicates that a binding interaction was not detected.
Description: as §2
In assay [3] the target is 5HT3 receptor (Homo sapiens (Human), UniProt P46098). In words: Secondary radioligand binding assay, 5HT3.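 Also: radioligand competition binding on membranes from transfected cell lines, 1.5 h incubation at room temperature, filter-retained radioactivity measured by liquid scintillation counting.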 On the set-up: key: “—” indicates that a binding interaction was not detected.
Description: as §2
For assay [4], the target named is 5HT4 receptor (Homo sapiens (Human), UniProt Q13639). In words: Secondary radioligand binding assay, 5HT4. On the set-up: key: “—” indicates that a binding interaction was not detected. The procedure: 1. Secondary Radioligand Binding Assays The detailed experimental protocols for the radioligand and functional receptor assays are available on the NIMH PDSP website at http://pdsp.med.unc.edu/UNC-CH %20Protocol %20Book.pdf. Assay Buffer: Standard Binding Buffer (50 mM Tris-HCl, 10 mM MgCl2, 1 mM EDTA, pH 7.4) Membrane Fraction Source: Transiently or stably transfected cell lines (e.g., HEK293, COS, CHO, NIH3T3) Protocol adapted from Roth et al. (1986), J. Pharmacol. Exp. Ther., 238(2): 480-485; and Roth et al. (1994), J. Pharmacol. Exp. Ther., 268(3): 1403-1410. […] A similar stock of a reference compound (positive control) is also prepared. […] Radioligand is diluted to five times the assay concentration (see Table 18) in Standard Binding Buffer. Typically, the assay concentration of radioligand is a value between one half the KD and the KD of a particular radioligand at its target. 50 μl aliquots of radioligand are dispensed into the wells of a 96-well plate containing 100 μl of Standard Binding Buffer. Then, duplicate 50 μl aliquots of the test and reference compound dilutions are added. Finally, crude membrane fractions of cells expressing recombinant target (prepared from 10 cm plates by harvesting PBS-rinsed monolayers, resuspending and lysing in chilled, hypotonic 50 mM Tris-HCl, pH 7.4, centrifuging at 20,000×g, decanting the supernatant and storing at −80° C.; typically, one 10 cm plate provides sufficient material for 24 wells), are resuspended in 3 ml of chilled Standard Binding Buffer and homogenized by several passages through a 26 gauge needle, then 50 μl are dispensed into each well. […] Four rapid 500 μl washes are performed with chilled Standard Binding Buffer to reduce non-specific binding. Filters are placed in 6 ml scintillation tubes and allowed to dry overnight. The next day, 4 ml of EcoScint scintillation cocktail (National Diagnostics) are added to each tube. The tubes are capped, labeled, and counted by liquid scintillation counting. For higher throughput assays, bound radioactivity is harvested onto 0.3% polyethyleneimine-treated, 96-well filter mats using a 96-well Filtermate harvester. The filter mats are dried, then scintillant is melted onto the filters and the radioactivity retained on the filters is counted in a Microbeta scintillation counter. Raw data (dpm) representing total radioligand binding (i.e. specific+non-specific binding) are plotted as a function of the logarithm of the molar concentration of the competitor (i.e. test or reference compound).

Assay [5] deals with 5HT5 receptor (Homo sapiens (Human), UniProt P47898). In words: Secondary radioligand binding assay, 5HT5.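 Also: competitive radioligand displacement on membranes from transfected cell lines, incubated at room temperature in the dark, filter-retained radioactivity counted by liquid scintillation.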 On the set-up: key: “—” indicates that a binding interaction was not detected.
Description: as §2
The target in assay [6] is 5HT6 receptor (Homo sapiens (Human), UniProt P50406). In words: Secondary radioligand binding assay, 5HT6.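 Also: competition displacement of radioligand from membranes of transfected cell lines expressing the receptor, 1.5 h at room temperature, bound radioactivity counted by scintillation after filtration.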 Also noted: key: “—” indicates that a binding interaction was not detected.
Description: as §2
For assay [7], the target named is Alpha1A adrenergic receptor (Homo sapiens (Human), UniProt P35348). In words: Secondary radioligand binding assay, Alpha1A. On the set-up: key to Ki Alpha1A: “—” indicates that a binding interaction was not detected. The source says: (§1) 1. Secondary Radioligand Binding Assays The detailed experimental protocols for the radioligand and functional receptor assays are available on the NIMH PDSP website at http://pdsp.med.unc.edu/UNC-CH %20Protocol %20Book.pdf. Raw data (dpm) representing total radioligand binding (i.e. specific+non-specific binding) are plotted as a function of the logarithm of the molar concentration of the competitor (i.e. test or reference compound). […] C. Adrenergic Receptors: α1A, α1B, α2A, α2B, α2C, β1, β2, β3 Assay Buffers: For α1 receptors, α1 Binding Buffer (20 mM Tris-HCl, 145 mM NaCl, pH 7.4); for α2 receptors, α2 Binding Buffer (50 mM Tris-HCl, 5 mM MgCl2, pH 7.7); for β receptors, β Binding Buffer (50 mM Tris-HCl, 3 mM MnCl2, pH 7.7) Membrane Fraction Source: Transiently or stably transfected cell lines (e.g. HEK293, COS, CHO, NIH3T3) Protocol adapted from Arango et al. […] (1990), Gen. Psychiatry, 47: 1038-1047. The method is carried out in the manner described for the serotonin receptor assay above, except where described below. Eleven dilutions (5× assay concentration) of the test and reference (see Table 20) compounds are prepared in the appropriate buffer by serial dilution, as previously described. Radioligand is diluted to five times the assay concentration (see Table 21) in the appropriate buffer. […] Four rapid 500-μl washes are performed with chilled distilled water (for α1 and β receptors) or 0.1% polyethyleneimine (for α2 receptors) to reduce non-specific binding. Filters are placed in 6 ml scintillation tubes and allowed to dry overnight and the samples are treated to obtain data as described above. [table]

The target in assay [8] is Alpha1B adrenergic receptor (Homo sapiens (Human), UniProt P35368). In words: Secondary radioligand binding assay, Alpha1B. Also noted: key to Ki Alpha1B: “—” indicates that a binding interaction was not detected.
Excerpt: as §1

Chain of Alpha1A adrenergic receptor (P35348 whole entry): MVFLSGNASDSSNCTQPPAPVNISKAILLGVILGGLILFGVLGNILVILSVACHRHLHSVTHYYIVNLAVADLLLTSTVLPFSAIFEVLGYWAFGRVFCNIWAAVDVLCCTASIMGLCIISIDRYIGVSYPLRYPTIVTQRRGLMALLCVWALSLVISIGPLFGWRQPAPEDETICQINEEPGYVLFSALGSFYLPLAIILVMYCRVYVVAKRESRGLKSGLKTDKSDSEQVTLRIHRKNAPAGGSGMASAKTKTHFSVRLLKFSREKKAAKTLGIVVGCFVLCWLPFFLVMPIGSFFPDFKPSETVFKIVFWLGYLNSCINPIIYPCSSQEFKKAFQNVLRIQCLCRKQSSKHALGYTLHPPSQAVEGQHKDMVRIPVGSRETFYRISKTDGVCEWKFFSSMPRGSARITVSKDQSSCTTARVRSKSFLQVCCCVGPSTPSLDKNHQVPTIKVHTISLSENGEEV
Chain of 5HT4 receptor (Q13639 whole entry): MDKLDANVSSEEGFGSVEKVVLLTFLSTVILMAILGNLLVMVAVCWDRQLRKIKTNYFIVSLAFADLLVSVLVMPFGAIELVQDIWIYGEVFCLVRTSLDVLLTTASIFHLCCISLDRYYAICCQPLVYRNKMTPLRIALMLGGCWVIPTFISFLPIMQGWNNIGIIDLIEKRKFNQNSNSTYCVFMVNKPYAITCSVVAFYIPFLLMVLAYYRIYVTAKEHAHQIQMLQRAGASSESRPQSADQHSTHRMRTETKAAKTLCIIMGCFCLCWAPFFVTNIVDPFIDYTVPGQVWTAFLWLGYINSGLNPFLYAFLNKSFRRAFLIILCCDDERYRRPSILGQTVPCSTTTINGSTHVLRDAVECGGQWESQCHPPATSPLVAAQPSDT
Chain of 5HT1e receptor (P28566 whole entry): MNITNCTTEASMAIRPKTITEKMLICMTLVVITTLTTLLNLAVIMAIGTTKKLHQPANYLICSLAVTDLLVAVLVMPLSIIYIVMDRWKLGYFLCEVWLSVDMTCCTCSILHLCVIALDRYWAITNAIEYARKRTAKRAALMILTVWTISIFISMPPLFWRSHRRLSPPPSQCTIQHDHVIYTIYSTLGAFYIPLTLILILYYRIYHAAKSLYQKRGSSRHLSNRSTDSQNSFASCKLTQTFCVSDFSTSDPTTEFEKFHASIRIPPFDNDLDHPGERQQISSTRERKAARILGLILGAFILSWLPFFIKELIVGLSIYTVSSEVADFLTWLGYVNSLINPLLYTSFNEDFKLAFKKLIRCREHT
Chain of 5HT5 receptor (P47898 whole entry): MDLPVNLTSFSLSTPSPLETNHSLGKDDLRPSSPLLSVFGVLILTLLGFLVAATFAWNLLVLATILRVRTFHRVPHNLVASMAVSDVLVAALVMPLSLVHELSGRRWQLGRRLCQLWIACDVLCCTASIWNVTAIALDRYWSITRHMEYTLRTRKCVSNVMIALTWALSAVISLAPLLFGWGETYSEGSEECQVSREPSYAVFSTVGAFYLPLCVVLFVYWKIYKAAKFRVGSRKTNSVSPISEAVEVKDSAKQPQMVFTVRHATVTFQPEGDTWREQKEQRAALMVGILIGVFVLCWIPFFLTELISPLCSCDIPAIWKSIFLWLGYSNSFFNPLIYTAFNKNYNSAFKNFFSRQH
Chain of 5HT6 receptor (P50406 whole entry): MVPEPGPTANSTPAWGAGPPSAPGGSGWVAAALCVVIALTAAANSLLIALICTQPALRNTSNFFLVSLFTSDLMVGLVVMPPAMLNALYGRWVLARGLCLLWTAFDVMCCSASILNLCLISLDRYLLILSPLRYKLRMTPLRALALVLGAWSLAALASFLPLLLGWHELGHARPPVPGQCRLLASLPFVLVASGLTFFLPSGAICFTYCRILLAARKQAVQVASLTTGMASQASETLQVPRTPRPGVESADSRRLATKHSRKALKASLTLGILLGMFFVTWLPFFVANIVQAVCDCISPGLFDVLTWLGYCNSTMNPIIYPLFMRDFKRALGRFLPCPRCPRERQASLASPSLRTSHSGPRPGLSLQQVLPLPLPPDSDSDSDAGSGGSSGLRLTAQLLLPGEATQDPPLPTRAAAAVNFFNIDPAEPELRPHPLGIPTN
Chain of Alpha1B adrenergic receptor (P35368 whole entry): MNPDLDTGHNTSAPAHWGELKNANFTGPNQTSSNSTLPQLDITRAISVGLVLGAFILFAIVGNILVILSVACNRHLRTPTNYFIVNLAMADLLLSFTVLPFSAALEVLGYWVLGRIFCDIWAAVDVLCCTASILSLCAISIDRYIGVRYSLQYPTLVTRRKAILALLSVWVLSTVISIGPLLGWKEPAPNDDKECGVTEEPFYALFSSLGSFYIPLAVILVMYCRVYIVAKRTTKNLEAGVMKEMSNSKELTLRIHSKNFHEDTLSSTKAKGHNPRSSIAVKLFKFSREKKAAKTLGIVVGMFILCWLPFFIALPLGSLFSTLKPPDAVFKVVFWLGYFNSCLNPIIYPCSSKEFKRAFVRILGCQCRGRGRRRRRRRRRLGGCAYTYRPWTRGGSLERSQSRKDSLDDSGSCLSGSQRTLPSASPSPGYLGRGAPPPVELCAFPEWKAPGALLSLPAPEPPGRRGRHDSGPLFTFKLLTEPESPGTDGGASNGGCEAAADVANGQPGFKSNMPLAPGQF
Chain of 5HT2b receptor (P41595 whole entry): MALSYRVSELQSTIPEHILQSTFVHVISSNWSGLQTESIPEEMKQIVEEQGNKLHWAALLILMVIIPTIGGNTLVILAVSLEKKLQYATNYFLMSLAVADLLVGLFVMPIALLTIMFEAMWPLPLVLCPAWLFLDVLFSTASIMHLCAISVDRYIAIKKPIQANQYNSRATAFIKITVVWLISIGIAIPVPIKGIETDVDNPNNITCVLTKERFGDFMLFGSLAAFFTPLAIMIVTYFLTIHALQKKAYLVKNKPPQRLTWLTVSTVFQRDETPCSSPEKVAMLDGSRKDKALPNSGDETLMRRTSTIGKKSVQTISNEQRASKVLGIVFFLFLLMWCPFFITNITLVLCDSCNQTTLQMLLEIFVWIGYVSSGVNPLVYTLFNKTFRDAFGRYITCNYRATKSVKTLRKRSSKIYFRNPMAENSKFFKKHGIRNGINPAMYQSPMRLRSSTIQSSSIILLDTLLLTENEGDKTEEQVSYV
Chain of 5HT3 receptor (P46098 24-478): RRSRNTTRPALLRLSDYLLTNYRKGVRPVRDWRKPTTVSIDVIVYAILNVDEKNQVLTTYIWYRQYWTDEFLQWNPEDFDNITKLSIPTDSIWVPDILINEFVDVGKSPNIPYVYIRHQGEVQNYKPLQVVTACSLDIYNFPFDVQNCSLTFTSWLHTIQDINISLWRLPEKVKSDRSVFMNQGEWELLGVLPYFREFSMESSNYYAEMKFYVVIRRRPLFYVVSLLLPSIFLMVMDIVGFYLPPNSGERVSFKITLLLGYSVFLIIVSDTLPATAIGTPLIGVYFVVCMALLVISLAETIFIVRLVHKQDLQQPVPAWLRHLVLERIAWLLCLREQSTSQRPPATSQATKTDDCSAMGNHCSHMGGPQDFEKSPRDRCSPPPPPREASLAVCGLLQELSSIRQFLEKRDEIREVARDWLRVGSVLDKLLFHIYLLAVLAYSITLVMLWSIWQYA

Turning to `Cc1ccc(OC[C@H]2CN(CCN3CCc4ccccc43)CCO2)cn1` [Compound 28r, (R)-4-(2-(Indolin-1-yl)ethyl)-2-(((6-methylpyridin-3-yl)oxy)methyl)morpholine], the “Ki 5HT1e” value in assay [1] is reported as “—”. Besides, the “Ki 5HT2b” value in assay [2] was “—”. Also, in assay [3], the “Ki 5HT3” value is listed as “—”. Also, in assay [4], the “Ki 5HT4” value was “—”. The “Ki 5HT5” value in assay [5] was “—”. In addition, the “Ki 5HT6” value in assay [6] is on record as “—”. Further, the “Ki Alpha1A” value in assay [7] was “—”. Besides, in assay [8], the “Ki Alpha1B” value is reported as “—”.
As usually defined, the Ki is the dissociation constant of the complex between target and ligand, obtained from inhibition or displacement. With `Cc1ccnc(C)c1OC[C@H]1CN(CCN2CCc3ccccc32)CCO1` [Compound 29r, (R)-2-(((2,4-Dimethylpyridin-3-yl)oxy)methyl)-4-(2-(indolin-1-yl)ethyl)morpholine], in assay [1], the “Ki 5HT1e” value is given as “—”. In assay [2], the inhibitory constant (Ki) came to 1330 nM. Also, the “Ki 5HT3” value in assay [3] was “—”. In assay [4], the “Ki 5HT4” value was “—”. Besides, in assay [5], the “Ki 5HT5” value is on record as “—”. In addition, in assay [6], the “Ki 5HT6” value was “—”. In assay [7], the “Ki Alpha1A” value was “—”. Besides, in assay [8], the “Ki Alpha1B” value was “—”.
`Cc1ccnc(OC[C@H]2CN(CC(=O)N3c4ccccc4CC3C)CCO2)c1` (stereo partly shown) [Compound 70]: the “Ki 5HT1e” value in assay [1] is on record as “—”. In assay [2], this compound yielded an inhibition constant Ki of 3460 nM. Also, the “Ki 5HT3” value in assay [3] is given as “—”. Moreover, the “Ki 5HT4” value in assay [4] is reported as “—”. Moreover, the “Ki 5HT5” value in assay [5] is “—”. In assay [6], the “Ki 5HT6” value was “—”. In addition, in assay [7], the “Ki Alpha1A” value is “—”. Also, the “Ki Alpha1B” value in assay [8] is given as “—”.
Consider `O=C(CN1CCO[C@H](COc2cccc(Cl)c2)C1)N1CCc2ccccc21` [Compound 22s, (S)-2-(2-((3-Chlorophenoxy)methyl)morpholino)-1-(indolin-1-yl)ethanone], for which the “Ki 5HT1e” value in assay [1] is recorded as “—”. In assay [2], affinity was put at a Ki of 1100 nM. Moreover, the “Ki 5HT3” value in assay [3] was “—”. The “Ki 5HT4” value in assay [4] is given as “—”. In assay [5], the “Ki 5HT5” value is “—”. Also, the “Ki 5HT6” value in assay [6] is listed as “—”. Besides, the “Ki Alpha1A” value in assay [7] is reported as “—”. Further, the “Ki Alpha1B” value in assay [8] was “—”.
Turning to `Clc1cncc(OC[C@H]2CN(CCN3CCc4ccccc43)CCO2)c1` [Compound 27r, (R)-2-(((5-Chloropyridin-3-yl)oxy)methyl)-4-(2-(indolin-1-yl)ethyl)morpholine], in assay [1], the “Ki 5HT1e” value is “—”. In assay [2], this compound had a Ki of 2560 nM. Besides, the “Ki 5HT3” value in assay [3] is “—”. In addition, in assay [4], the “Ki 5HT4” value was “—”. Besides, the “Ki 5HT5” value in assay [5] is listed as “—”. In addition, the “Ki 5HT6” value in assay [6] is “—”. For the same compound, in assay [7], the “Ki Alpha1A” value is “—”. Moreover, in assay [8], the “Ki Alpha1B” value is on record as “—”.
On to `Cc1ncccc1OC[C@H]1CN(CC(=O)N2c3ccccc3C[C@H]2C)CCO1` [Compound 63], for which the “Ki 5HT1e” value in assay [1] was “—”. Besides, the “Ki 5HT2b” value in assay [2] was “—”. The “Ki 5HT3” value in assay [3] is “—”. Also, the “Ki 5HT4” value in assay [4] is listed as “—”. In assay [5], the “Ki 5HT5” value was “—”. Further, the “Ki 5HT6” value in assay [6] is recorded as “—”. Also, the “Ki Alpha1A” value in assay [7] is “—”. Also, the “Ki Alpha1B” value in assay [8] is recorded as “—”.
On to `COc1cccc(OC[C@@H]2CN(CC(=O)N3CCc4ccccc43)CCO2)c1` [Compound 24s, (S)-1-(Indolin-1-yl)-2-(2-((3-methoxyphenoxy)methyl)morpholino)ethanone], for which the “Ki 5HT1e” value in assay [1] is given as “—”. This compound gave a Ki in assay [2] of 1650 nM. The “Ki 5HT3” value in assay [3] was “—”. Moreover, the “Ki 5HT4” value in assay [4] is on record as “—”. Moreover, in assay [5], the “Ki 5HT5” value was “—”. The “Ki 5HT6” value in assay [6] is recorded as “—”. Besides, the “Ki Alpha1A” value in assay [7] is recorded as “—”. Further, in assay [8], the “Ki Alpha1B” value was “—”.
In the case of `Clc1cncc(OC[C@@H]2CN(CCN3CCc4ccccc43)CCO2)c1` [Compound 27s, (S)-2-(((5-Chloropyridin-3-yl)oxy)methyl)-4-(2-(indolin-1-yl)ethyl)morpholine], in assay [1], the “Ki 5HT1e” value is listed as “—”. Also, the “Ki 5HT2b” value in assay [2] is listed as “—”. Moreover, the “Ki 5HT3” value in assay [3] was “—”. Moreover, in assay [4], the “Ki 5HT4” value is on record as “—”. Besides, the “Ki 5HT5” value in assay [5] is “—”. Moreover, the “Ki 5HT6” value in assay [6] is on record as “—”. The “Ki Alpha1A” value in assay [7] was “—”. For the same compound, the “Ki Alpha1B” value in assay [8] is “—”.
